Data: US8420655B2, “Benzimidazole inhibitors of leukotriene production” (Boehringer Ingelheim International GmbH, priority 2009, dated 2013)

biological target: T1, recombinant human FLAP protein (Homo sapiens, UniProt P20292); assay: FLAP binding assay, displacement of iodinated (125I) FLAP inhibitor, Scintillation Proximity Assay format; details: [125I]L-691,831 probe, membrane protein from sf9 cells; read-out: hFLAP binding IC50
T1 construct: made in house; host or cells: Sf9 insect cells (membrane fraction, 100,000 x g pellet)
T1 sequence (P20292 1-161): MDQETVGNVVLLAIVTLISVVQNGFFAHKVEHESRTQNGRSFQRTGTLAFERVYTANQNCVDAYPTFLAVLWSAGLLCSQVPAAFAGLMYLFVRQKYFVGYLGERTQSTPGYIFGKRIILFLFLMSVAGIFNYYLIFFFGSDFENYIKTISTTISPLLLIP
Method: Compounds are assessed for the ability to bind to FLAP in a binding assay that measures compound-specific displacement of an iodinated (^125I) FLAP inhibitor via a Scintillation Proximity Assay format (adapted from S. Charleson et al., Mol. Pharmacol., 1992, 41, 873-879).
Cell pellets produced from sf9 insect cells expressing recombinant human FLAP protein are resuspended in buffer A [15 mM Tris-HCl (pH 7.5), 2 mM MgCl2, 0.3 mM EDTA, 1 mM PMSF]. The cells are lysed with a Dounce homogenizer and the material is centrifuged at 10,000×g for 10 minutes. The supernatant is then collected and centrifuged at 100,000×g for 60 minutes. To prepare membrane protein for an assay, an aliquot of the 100,000×g pellet is resuspended in 1 ml of buffer A, Dounce homogenized, and finally subjected to polytron mixing (30 seconds). Membrane protein (25 μl, 5 μg) is mixed with WGA SPA beads (Amersham) and stirred for 1 h. To an assay plate (Perkin Elmer FlexiPlate) is added 25 μl of test compound prepared in Binding buffer [100 mM Tris (pH 7.5), 140 mM NaCl, 5% glycerol, 2 mM EDTA, 0.5 mM TCEP, 0.05% Tween 20], 25 μl of [^125I]L-691,831 (an iodinated analog of MK-591, Charleson et al. Mol. Pharmacol., 41, 873-879, 1992) and finally 50 μl of the bead/protein mixture. (final concentrations: beads, 200 μg/well; protein, 5 μg/well; [^125I] probe, 0 08 nM/well (17 nCi/well). The plates are shaken for 2 h before reading on a Microbeta plate reader. Non-specific binding is determined by the addition of 10 μM cold L-691,831 compound.

SMILES	IC50 [nM]
CC(C)(C)n1c(-c2ccccc2-n2cncn2)nc2cc(-c3cnc(N)nc3)ccc21	2.7
CC(C)(C)n1c(-c2cc(C(F)(F)F)ccc2-n2cncn2)nc2cc(-c3cnc(N)nc3)ccc21	2.4
CC(C)(C)n1c(-c2cc(F)ccc2-n2cncn2)nc2cc(-c3cnc(N)nc3)ccc21	1.4
Cc1ccc(-n2cncn2)c(-c2nc3cc(-c4cnc(N)nc4)ccc3n2C(C)(C)C)c1	1.6
Cc1ccc(-n2cnc(C)n2)c(-c2nc3cc(-c4cnc(N)nc4)ccc3n2C(C)(C)C)c1	1.7
COc1ccc(-n2cccn2)c(-c2nc3cc(-c4cnc5[nH]ccc5c4)ccc3n2C(C)(C)C)c1 [1-tert-Butyl-2-(5-methoxy-2-pyrazol-1-yl-phenyl)-5-(1H-pyrrolo[2,3-b]pyridin-5-yl)-1H-benzimidazole]	1.1
Cc1noc(-c2ccccc2-c2nc3cc(-c4cnc5[nH]ccc5c4)ccc3n2C(C)(C)C)n1 [1-tert-Butyl-2-[2-(3-methyl-1,2,4-oxadiazol-5-yl)-phenyl]-5-(1H-pyrrolo[2,3-b]pyridin-5-yl)-1H-benzimidazole]	1.2
CC(C)(C)n1c(-c2ccccc2-n2cncn2)nc2cc(-c3cnc4c(c3)CCN4)ccc21 [1-tert-Butyl-5-(2,3-dihydro-1H-pyrrolo[2,3-b]pyridin-5-yl)-2-(2-1,2,4-triazol-1-yl-phenyl)-1H-benzimidazole]	2.1
COc1ccc(-n2cccn2)c(-c2nc3cc(-c4cnc5c(c4)CCN5)ccc3n2C(C)(C)C)c1 [1-tert-Butyl-5-(2,3-dihydro-1H-pyrrolo[2,3-b]pyridin-5-yl)-2-(5-methoxy-2-pyrazol-1-yl-phenyl)-1H-benzimidazole]	1.5
CCNC(=O)c1ncn(-c2ccc(C#N)cc2-c2nc3cc(-c4cnc(N)nc4)ccc3n2C(C)(C)C)n1 [1-{2-[5-(2-Amino-pyrimidin-5-yl)-1-tert-butyl-1H-benzoimidazol-2-yl]-4-cyano-phenyl}-1H-[1,2,4]triazole-3-carboxylic acid ethylamide]	29.5
CC(C)COC(=O)c1ncn(-c2ccc(C#N)cc2-c2nc3cc(-c4cnc(N)nc4)ccc3n2C(C)(C)C)n1 [1-{2-[5-(2-Amino-pyrimidin-5-yl)-1-tert-butyl-1H-benzoimidazol-2-yl]-4-cyano-phenyl}-1H-[1,2,4]triazole-3-carboxylic acid isobutyl ester]	12.4
COC(=O)c1ncn(-c2ccc(C#N)cc2-c2nc3cc(-c4cnc(N)nc4)ccc3n2C(C)(C)C)n1 [1-{2-[5-(2-Amino-pyrimidin-5-yl)-1-tert-butyl-1H-benzoimidazol-2-yl]-4-cyano-phenyl}-1H-[1,2,4]triazole-3-carboxylic acid methyl ester]	15.9
CC(C)(C)n1c(-c2ccccc2-c2ncn(CCO)n2)nc2cc(-c3cnc(N)nc3)ccc21 [2-(3-{2-[5-(2-Amino-pyrimidin-5-yl)-1-tert-butyl-1H-benzoimidazol-2-yl]-phenyl}-[1,2,4]triazol-1-yl)-ethanol]	5.8
COC(=O)C(C)(C)Oc1ccc(-c2nc3cc(-c4cnc(N)nc4)ccc3n2C(C)(C)C)c(-n2cncn2)c1 [2-{4-[5-(2-Amino-pyrimidin-5-yl)-1-tert-butyl-1H-benzoimidazol-2-yl]-3-[1,2,4]triazol-1-yl-phenoxy}-2-methyl-propionic acid methyl ester]	7.2
CC(C)(Oc1ccc(-c2nc3cc(-c4cnc(N)nc4)ccc3n2C(C)(C)C)c(-n2cncn2)c1)C(=O)O [2-{4-[5-(2-Amino-pyrimidin-5-yl)-1-tert-butyl-1H-benzoimidazol-2-yl]-3-[1,2,4]triazol-1-yl-phenoxy}-2-methyl-propionic acid]	5.5
CC(C)(C)n1c(-c2cc(C#N)ccc2-n2cncn2)nc2cc(-c3cnc(N)nc3)ccc21 [3-[5-(2-Amino-pyrimidin-5-yl)-1-tert-butyl-1H-benzimidazol-2-yl]-4-1,2,4-triazol-1-yl-benzonitrile]	3.1
